Results reported in patent US20230165252A1, “ACTIVE COMPOUND COMBINATIONS” (Bayer Aktiengesellschaft, priority 2020, published 2023).
Where “and” joins values, the source holds several entries; their conditions need not be identical. Equal values may be shown once. Read-outs that look alike come from different tables or passages of the source.

What was measured:
Type in all cases: cell-based
[1] = tested on: Colletotrichum lindemuthianum; assay: in vitro-Test with Colletotrichum lindemuthianum (microtiter growth inhibition); settings: for inhibition of growth at 0.04 ppm: applied alone at 0.04 ppm; for inhibition of growth at 0.004 ppm: applied alone at 0.004 ppm; for inhibition of growth at 0.02 ppm: applied alone at 0.020 ppm; for inhibition of growth at 0.1 ppm: applied alone at 0.1 ppm; for inhibition of growth at 0.5 ppm: applied alone at 0.5 ppm
Method: The degree of efficacy expressed in % is denoted: 0% means an efficacy, which corresponds to that of the control, while an efficacy of 100% means that no disease is observed.
If the actual fungicidal activity exceeds the calculated value, then the activity of the combination is super-additive, i.e. a synergistic effect exists. In this case, the efficacy, which was actually observed, must be greater than the value for the expected efficacy (E), that was calculated from the abovementioned formula.
Example: In Vitro-Test with Fungal Microorganisms
Wells of 96-well microtiter plates are filled with 10 μl of a preparation of test compound or compound combination in methanol+emulsifier alkylaryl-polyglycol-ether. Thereafter, the solvent is evaporated in a hood. At the next step, 100 μl of liquid potato dextrose medium is given into each well, that has been amended with an appropriate concentration of spores or mycelium suspension of the test fungus.
With the aid of a photometer, the extinction in all wells is measured at the wavelength of 620 nm.
The microtiter plates are incubated at 20° C. and 85% relative humidity. The inhibition of growth is determined again photometrically 3-5 days after the application. Efficacy is calculated in relation to the untreated control, 0% efficacy means fungal growth as high as in untreated control while 100% efficacy means no fungal growth is measured.

Parastagonospora nodorum = assay: in vitro-Test with Parastagonospora nodorum (microtiter growth inhibition)
Outline: (§1)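 Cpd/combination in MeOH + emulsifier into wells, solvent evaporated; liquid potato dextrose medium + spore/mycelium suspension added. OD 620 nm at t0; incubate 20° C./85% RH; OD 620 nm again at 3-5 d. % efficacy vs untreated control; combinations compared with expected efficacy (E) calculated by formula.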

[2] = tested on: Ustilago segetum var. avenae; assay: in vitro-Test with Ustilago segetum var. avenae (microtiter growth inhibition); settings: for inhibition of growth at 0.02 ppm: 0.020 ppm
Outline: as §1

Botrytis cinerea = assay: in vitro-Test with Botrytis cinerea (microtiter growth inhibition); settings: for Efficacy: applied alone
Outline: as §1

Cercospora beticola = assay: in vitro-Test with Cercospora beticola (microtiter growth inhibition)
Outline: as §1

Alternaria alternate = assay: in vitro-Test with Alternaria alternate (microtiter growth inhibition); settings: Alternaria, alone, read-out: Efficacy %
Outline: as §1

Cordana musae = assay: in vitro-Test with Cordana musae (microtiter growth inhibition); settings: Neocordana musae, single substance, read-out: Efficacy; for inhibition of growth at 0.02 ppm: 0.020 ppm
Outline: as §1

Diaporthe citri = assay: in vitro-Test with Diaporthe citri (microtiter growth inhibition); settings: Diaporthe citri, applied alone, read-out: Efficacy; for inhibition of growth at 0.02 ppm: 0.020 ppm
Outline: as §1

Fusarium culmorum = assay: in vitro-Test with Fusarium culmorum (microtiter growth inhibition); settings: Fusarium culmorum, read-out: Efficacy; for inhibition of growth at 0.02 ppm: 0.020 ppm
Outline: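 Steps: dry the compound (methanol with alkylaryl-polyglycol-ether) in each well; add potato dextrose liquid medium containing fungal spores or mycelium; record 620 nm extinction; incubate at 20° C. and 85% relative humidity; re-measure photometrically after 3-5 days. Efficacy in % against untreated wells.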

[3] = Colletotrichum lindemuthianum, applied alone at 0.008 ppm, read-out: Efficacy %
[4] = Colletotrichum lindemuthianum, read-out: Efficacy %
[5] = Colletotrichum lindemuthianum, applied alone at 1.0 ppm, read-out: Efficacy %
[6] = Parastagonospora nodorum, compound alone, read-out: Efficacy %
[7] = compound alone, 0.2 ppm, read-out: Efficacy %
[8] = Parastagonospora nodorum, compound alone, 0.004 ppm, read-out: Efficacy %
[9] = Parastagonospora nodorum, compound alone, 0.020 ppm, read-out: Efficacy %
[10] = Parastagonospora nodorum, compound alone, 0.1 ppm, read-out: Efficacy %
[11] = Parastagonospora nodorum, compound alone, 0.5 ppm, read-out: Efficacy %
[12] = compound alone, read-out: Efficacy %
[13] = single compound, read-out: Efficacy %

In the case of `CC1COC(Cn2cncn2)(c2ccc(Oc3ccc(Cl)cc3)cc2Cl)O1` (stereo not shown) [(1.002) difenoconazole], the inhibition of growth at 0.008 ppm [1, 3] is reported as 2%, the inhibition of growth at 0.04 ppm [1, 4] is reported as 13% and the inhibition of growth at 1 ppm [1, 5] is reported as 13%. The inhibition of growth at 0.04 ppm (Parastagonospora nodorum; [6]) was 16%, the inhibition of growth at 0.2 ppm (Parastagonospora nodorum; [6]) was 83% and the Efficacy % (Parastagonospora nodorum; compound alone, 0.008 ppm) was 0%. For the same compound, the Efficacy % (Parastagonospora nodorum; compound alone, 1.0 ppm) was 97%, the inhibition of growth at 0.008 ppm ([2]; compound alone, 0.008 ppm, read-out: Efficacy %) was 14% and the inhibition of growth at 0.2 ppm [2, 7] was 57%.
For `CC(C)c1ccc(Cl)cc1CN(C(=O)c1c(C(F)F)nn(C)c1F)C1CC1` [(2.038) isoflucypram], the Efficacy % (Botrytis cinerea; single active at 0.04 ppm) was 43% and 57%, the Efficacy % (Botrytis cinerea; single active at 0.2 ppm) was 63% and 75% and the Efficacy % (Botrytis cinerea; single active at 1.0 ppm) was 83% and 87%. The Efficacy % ([1]; applied alone at 0.008 ppm) was 15% and 8%, the Efficacy % ([1]; applied alone at 1.0 ppm) was 5% and the Efficacy % ([2]; compound alone, 0.008 ppm) was 7%. The Efficacy % ([2]; compound alone, 0.2 ppm) was 100% and 98% and the Efficacy % ([2]; compound alone, 1.0 ppm) was 100%.
For `CON=C(C(=O)OC)c1ccccc1CON=C(C)c1cccc(C(F)(F)F)c1` [(3.020) trifloxystrobin], the inhibition of growth at 0.008 ppm (Botrytis cinerea; Botrytis cinerea, single active at 0.008 ppm, read-out: Efficacy %) was 0%, the inhibition of growth at 0.2 ppm (Botrytis cinerea; Botrytis cinerea, single active at 0.2 ppm, read-out: Efficacy %) was 3% and the inhibition of growth at 1 ppm (Botrytis cinerea; Botrytis cinerea, single active at 1.0 ppm, read-out: Efficacy %) was 14%. It also gave an inhibition of growth at 0.008 ppm [1, 3] of 27%, an inhibition of growth at 0.04 ppm [1, 4] of 56% and an inhibition of growth at 0.2 ppm ([1]; Colletotrichum lindemuthianum, applied alone at 0.2 ppm, read-out: Efficacy %) of 78%. The inhibition of growth at 1 ppm [1, 5] was 79%, the Efficacy % ([1]; applied alone at 0.2 ppm) was 77% and the inhibition of growth at 0.008 ppm (Parastagonospora nodorum; Parastagonospora nodorum, compound alone, 0.008 ppm, read-out: Efficacy %) was 36%. It also gave an inhibition of growth at 0.04 ppm (Parastagonospora nodorum; [6]) of 61%, an inhibition of growth at 0.2 ppm (Parastagonospora nodorum; [6]) of 75% and an inhibition of growth at 1 ppm (Parastagonospora nodorum; Parastagonospora nodorum, compound alone, 1.0 ppm, read-out: Efficacy %) of 83%. It also gave an inhibition of growth at 0.2 ppm [2, 7] of 53% and an inhibition of growth at 1 ppm ([2]; compound alone, 1.0 ppm, read-out: Efficacy %) of 82%.
`CCO[PH](=O)[O-].CCO[PH](=O)[O-].CCO[PH](=O)[O-].[Al+3]` [(15.012) fosetyl-aluminium] showed an Efficacy % (Cercospora beticola; applied alone at 0.8 ppm) of 0%, an Efficacy % (Cercospora beticola; applied alone at 4 ppm) of 0% and an Efficacy % (Cercospora beticola; applied alone at 20 ppm) of 4%. It also gave an Efficacy % (Cercospora beticola; applied alone at 100 ppm) of 15%, an Efficacy % ([1]; applied alone at 0.8 ppm) of 0% and an Efficacy % ([1]; applied alone at 4 ppm) of 7%. It also gave an Efficacy % ([1]; applied alone at 20 ppm) of 0%, an Efficacy % ([1]; applied alone at 100 ppm) of 53% and an Efficacy % (Parastagonospora nodorum; compound alone, 0.8 ppm) of 0%. For the same compound, the Efficacy % (Parastagonospora nodorum; compound alone, 4 ppm) was 2%.
In the case of `COc1cc(C)c(C(=O)c2c(OC)ccc(Br)c2C)c(OC)c1OC` [(15.016) metrafenone], the inhibition of growth at 0.8 ppm (Botrytis cinerea; Botrytis cinerea, single active at 0.8 ppm, read-out: Efficacy %) is reported as 0%, the inhibition of growth at 0.8 ppm (Cercospora beticola; Cercospora beticola, applied alone at 0.8 ppm, read-out: Efficacy %) is reported as 0% and the inhibition of growth at 4 ppm (Cercospora beticola; Cercospora beticola, applied alone at 4 ppm, read-out: Efficacy %) is reported as 13%. It also gave an inhibition of growth at 4 ppm ([1]; Colletotrichum lindemuthianum, applied alone at 4 ppm, read-out: Efficacy %) of 15% and an inhibition of growth at 20 ppm ([1]; Colletotrichum lindemuthianum, applied alone at 20 ppm, read-out: Efficacy %) of 10%.
`Cc1ccc(C(F)(F)CNC(=O)c2c(Oc3cccc(C4CC4)c3F)nnc(Cl)c2C)c(C)c1` [Compound I-655, 6-chloro-3-(3-cyclopropyl-2-fluorophenoxy)-N-[2-(2,4-dimethylphenyl)-2,2-difluoroethyl]-5-methylpyridazine-4-carboxamide] was tested, and the inhibition of growth at 0.004 ppm (Alternaria alternate) was 0%, the inhibition of growth at 0.02 ppm (Alternaria alternate) was 0% and the inhibition of growth at 0.1 ppm (Alternaria alternate) was 20%. For the same compound, the inhibition of growth at 0.5 ppm (Alternaria alternate) was 100%, the Efficacy (Botrytis cinerea; 0.004 ppm) was 0% and the Efficacy (Botrytis cinerea; 0.020 ppm) was 0%. The Efficacy (Botrytis cinerea; 0.1 ppm) was 58%, the Efficacy (Botrytis cinerea; 0.5 ppm) was 100% and the inhibition of growth at 0.004 ppm [1, 4] was 0%. It also gave an inhibition of growth at 0.02 ppm [1, 4] of 20%, an inhibition of growth at 0.1 ppm [1, 4] of 98% and an inhibition of growth at 0.5 ppm [1, 4] of 100%. The inhibition of growth at 0.004 ppm (Cordana musae) was 2%, the inhibition of growth at 0.02 ppm (Cordana musae) was 4% and the inhibition of growth at 0.1 ppm (Cordana musae) was 100%. For the same compound, the inhibition of growth at 0.5 ppm (Cordana musae) was 100%, the inhibition of growth at 0.004 ppm (Diaporthe citri) was 0% and the inhibition of growth at 0.02 ppm (Diaporthe citri) was 0%. It also gave an inhibition of growth at 0.1 ppm (Diaporthe citri) of 13%, an inhibition of growth at 0.5 ppm (Diaporthe citri) of 100% and an inhibition of growth at 0.004 ppm (Fusarium culmorum) of 0%. It also gave an inhibition of growth at 0.02 ppm (Fusarium culmorum) of 7%, an inhibition of growth at 0.1 ppm (Fusarium culmorum) of 7% and an inhibition of growth at 0.5 ppm (Fusarium culmorum) of 19%. For the same compound, the Efficacy (Parastagonospora nodorum; 0.004 ppm) was 0%, the Efficacy (Parastagonospora nodorum; 0.020 ppm) was 0% and the Efficacy (Parastagonospora nodorum; 0.1 ppm) was 41%. The Efficacy (Parastagonospora nodorum; 0.5 ppm) was 100%, the inhibition of growth at 0.004 ppm (Parastagonospora nodorum; [8]) was 0% and the inhibition of growth at 0.02 ppm (Parastagonospora nodorum; [9]) was 0%. It also gave an inhibition of growth at 0.1 ppm (Parastagonospora nodorum; [10]) of 41%, an inhibition of growth at 0.5 ppm (Parastagonospora nodorum; [11]) of 100% and an inhibition of growth at 0.004 ppm [2, 12] of 7%. The inhibition of growth at 0.02 ppm [2, 12] was 6%, the inhibition of growth at 0.1 ppm [2, 12] was 0% and the inhibition of growth at 0.5 ppm [2, 12] was 0%.
Work on `Cc1ccc(C(F)(F)CNC(=O)c2c(Oc3cccc(C4CC4)c3F)nnc(Cl)c2C)c(Cl)c1` [Compound I-746, 6-chloro-N-[2-(2-chloro-4-methylphenyl)-2,2-difluoroethyl]-3-(3-cyclopropyl-2-fluoro-phenoxy)-5-methylpyridazine-4-carboxamide] yielded an inhibition of growth at 0.004 ppm (Alternaria alternate) of 0%, an inhibition of growth at 0.02 ppm (Alternaria alternate) of 0% and an inhibition of growth at 0.1 ppm (Alternaria alternate) of 22%. The inhibition of growth at 0.5 ppm (Alternaria alternate) was 100%, the inhibition of growth at 0.004 ppm (Cercospora beticola; Cercospora beticola, alone, 0.004 ppm, read-out: Efficacy %) was 0% and the inhibition of growth at 0.02 ppm (Cercospora beticola; Cercospora beticola, alone, 0.020 ppm, read-out: Efficacy %) was 5%. It also gave an inhibition of growth at 0.1 ppm (Cercospora beticola; Cercospora beticola, alone, 0.1 ppm, read-out: Efficacy %) of 4%, an inhibition of growth at 0.5 ppm (Cercospora beticola; Cercospora beticola, alone, 0.5 ppm, read-out: Efficacy %) of 26% and an inhibition of growth at 0.004 ppm [1, 4] of 0%. The inhibition of growth at 0.02 ppm [1, 4] was 14%, the inhibition of growth at 0.1 ppm [1, 4] was 100% and the inhibition of growth at 0.5 ppm [1, 4] was 100%. It also gave an inhibition of growth at 0.004 ppm (Cordana musae) of 0%, an inhibition of growth at 0.02 ppm (Cordana musae) of 10% and an inhibition of growth at 0.1 ppm (Cordana musae) of 79%. The inhibition of growth at 0.5 ppm (Cordana musae) was 100%, the inhibition of growth at 0.004 ppm (Diaporthe citri) was 0% and the inhibition of growth at 0.02 ppm (Diaporthe citri) was 0%. For the same compound, the inhibition of growth at 0.1 ppm (Diaporthe citri) was 2%, the inhibition of growth at 0.5 ppm (Diaporthe citri) was 51% and the inhibition of growth at 0.004 ppm (Fusarium culmorum) was 0%. For the same compound, the inhibition of growth at 0.02 ppm (Fusarium culmorum) was 0%, the inhibition of growth at 0.1 ppm (Fusarium culmorum) was 0% and the inhibition of growth at 0.5 ppm (Fusarium culmorum) was 0%. For the same compound, the inhibition of growth at 0.004 ppm (Parastagonospora nodorum; [8]) was 0%, the inhibition of growth at 0.02 ppm (Parastagonospora nodorum; [9]) was 0% and the inhibition of growth at 0.1 ppm (Parastagonospora nodorum; [10]) was 31%. The inhibition of growth at 0.5 ppm (Parastagonospora nodorum; [11]) was 100%, the inhibition of growth at 0.004 ppm [2, 12] was 0% and the inhibition of growth at 0.02 ppm [2, 12] was 2%. The inhibition of growth at 0.1 ppm [2, 12] was 0%, the inhibition of growth at 0.5 ppm [2, 12] was 0% and the inhibition of growth at 0.004 ppm [2, 13] was 0%. It also gave an inhibition of growth at 0.02 ppm [2, 13] of 2%, an inhibition of growth at 0.1 ppm [2, 13] of 0% and an inhibition of growth at 0.5 ppm [2, 13] of 0%.
